# Laboratory results published in patent publication US7868005B2, “Pyrazinyl substituted piperazine-piperidines with CXCR3 antagonist activity” (Schering Corporation, priority 2005, dated 2011).
# Biological target: T1, human CXCR3 (N-delta 4) (Homo sapiens, UniProt P49682)
# T1 construct: CD8 leader (N); Flag; expressed in transfected cells; membranes prepared
# T1 sequence (P49682 5-368 limits assumed): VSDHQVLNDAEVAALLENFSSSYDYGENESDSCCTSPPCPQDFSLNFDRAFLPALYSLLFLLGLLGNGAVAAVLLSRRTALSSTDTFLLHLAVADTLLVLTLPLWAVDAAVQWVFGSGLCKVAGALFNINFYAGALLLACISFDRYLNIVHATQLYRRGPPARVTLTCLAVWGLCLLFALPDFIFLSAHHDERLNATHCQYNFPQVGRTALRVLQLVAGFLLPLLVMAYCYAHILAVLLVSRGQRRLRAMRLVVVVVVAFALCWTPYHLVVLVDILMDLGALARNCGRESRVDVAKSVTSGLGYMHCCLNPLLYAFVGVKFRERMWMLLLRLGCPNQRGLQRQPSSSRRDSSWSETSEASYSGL
# Test: Human CXCR3 (N-delta 4) Scintillation Proximity Assay (SPA), [125I] IP-10 binding to Ba/F3-hCXCR3 membranes
# Details: IC50 rating, Table 1; read-out: IC50
# Description: The inventive compounds can readily be evaluated to determine activity at the CXCR3 receptors by known methods, such as, for example, development of a human CXCR3 (N-delta 4) Binding Assay.
# Cloning and Expression of Human CXCR3 (N-delta 4):
# The DNA encoding human CXCR3 was cloned by PCR using human genomic DNA (Promega, Madison, Wis.) as a template. The PCR primers were designed based on the published sequence of human orphan receptor GPR9 (1) with incorporated restriction sites, a Kozak consensus sequence, CD8 leader and Flag tag. The PCR product was subcloned into the mammalian expression vector pME18Sneo, a derivative of the SR-alpha expression vector (designated as pME18Sneo-hCXCR3 (N-delta 4).
# IL-3-dependent mouse pro-B cells Ba/F3 were transfected by electroporation in 0.4 ml Dulbecco's PBS containing 4×10^6 cells with 20 μg of pME18Sneo-hCXCR3 (N-delta 4) plasmid DNA. Cells were pulsed at 400 Volts, 100 OHMs, 960 μFd. The transfected cells were under selection with 1 mg/ml G418 (Life Technologies, Gaithersburg, Md.). G418-resistant Ba/F3 clones were screened for CXCR3 expression by specific binding of [^125I] IP-10 (NEN Life Science Products, Boston, Mass.).
# Preparation of Ba/F3-hCXCR3 (N-delta 4) Membranes:
# Ba/F3 cells expressing human CXCR3 (N-delta 4) were pelleted and resuspended in the lysis buffer containing 10 mM HEPES, pH 7.5 and Complete® protease inhibitors (1 tablet per 100 ml) (Boehringer Mannheim, Indianapolis, Ind.) at a cell density of 20×10^6 cells per ml. After 5 minute incubation on ice, cells were transferred to 4639 cell disruption bomb (Parr Instrument, Moline, Ill.) and applied with 1,500 psi of nitrogen for 30 minutes on ice. Large cellular debris was removed by centrifugation at 1,000×g. Cell membrane in the supernatant was sedimented at 100,000×g. The membrane was resuspended in the lysis buffer supplemented with 10% sucrose and stored at −80° C. Total protein concentration of the membrane was determined by BCA method from Pierce (Rockford, Ill.).
# Human CXCR3 (N-delta 4) Scintillation Proximity Assay (SPA):
# For each assay point, 2 μg of membrane was preincubated for 1 hr with 300 μg wheat germ agglutinin (WGA) coated SPA beads (Amersham, Arlington Heights, Ill.) in the binding buffer (50 mM HEPES, 1 mM CaCl2, 5 mM MgCl2, 125 mM NaCl, 0.002% NaN3, 1.0% BSA) at room temperature. The beads were spun down, washed once, resuspended in the binding buffer and transferred to a 96-well Isoplate (Wallac, Gaithersburg, Md.). 25 pM of [^125I] IP-10 with tested compounds in a series of titration were added to start the reaction. After 3 hr reaction at room temperature, the amount of [^125I] IP-10 bound to the SPA beads was determined with a Wallac 1450 Microbeta counter.
# The Ki ratings for the various compounds of the present invention are given in the afore-mentioned Table 1. From these ratings and value ranges, it would be apparent to the skilled artisan that the compounds of the invention have excellent utility as CXCR3 receptor antagonists.
row,Compound,IC50 [nM]
1,CC[C@H]1CN(c2nc(N)c(C(N)=O)nc2Cl)CCN1C1CCN(Cc2ccc(Cl)cc2[C@@H](O)C(=O)NC)CC1 [compound 44],> 100
2,CC[C@H]1CN(c2nc(N)c(C(N)=O)nc2Cl)CCN1C1CCN([C@@H](C(=O)NC2CC2)c2ccc(Cl)cc2)CC1 [compound 45],> 100
3,CC[C@H]1CN(c2nc(N)c(C(N)=O)nc2Cl)CCN1C1CCN(Cc2ccc(Cl)cc2CC(=O)NCCNS(C)(=O)=O)CC1 [compound 46],> 100
4,CCNC(=O)NCCc1cc(Cl)ccc1CN1CCC(N2CCN(c3nc(N)c(C(N)=O)nc3Cl)C[C@@H]2CC)CC1 [compound 47],> 100
5,CC[C@H]1CN(c2nc(N)c(C(N)=O)nc2Cl)CCN1C1CCN(Cc2ccc(Cl)cc2CC(=O)N2CC[C@H](O)C2)CC1 [compound 48],> 100
6,CC[C@H]1CN(c2nc(N)c(C(N)=O)nc2Cl)CCN1C1CCN([C@H](CO)c2ccc(Cl)cc2)CC1 [compound 49],> 100
7,CC[C@H]1CN(c2nc(N)c(C(N)=O)nc2Cl)CCN1C1CCN([C@@H](C(=O)NC)c2ccc(Cl)cc2)CC1 [compound 50],> 100
8,CC[C@H]1CN(c2nc(N)c(C(N)=O)nc2Cl)CCN1C1CCN(Cc2ccc(Cl)cc2CC(=O)N2CC[C@@H](O)C2)CC1 [compound 51],> 100
9,CC[C@H]1CN(c2nc(N)c(C(N)=O)nc2Cl)CCN1C1CCN(Cc2ccc(Cl)cc2CCn2ccnc2)CC1 [compound 52],> 100
10,CCOC(=O)C1CCC(Oc2ccc(CN3CCC(N4CCN(c5nc(N)c(C(N)=O)nc5Cl)C[C@@H]4CC)CC3)cc2)CC1 (stereo partly shown) [compound 53],> 100
11,CC[C@H]1CN(c2nc(N)c(C(N)=O)nc2Cl)CCN1C1CCN(Cc2ccc(-n3cncn3)cc2)CC1 [compound 54],> 100
12,CC[C@H]1CN(c2nc(N)c(C(N)=O)nc2Cl)CCN1C1CCN(Cc2ccc(Cl)cc2CC(=O)N2CCOCC2)CC1 [compound 55],> 100
13,CC[C@H]1CN(c2nc(N)c(C(N)=O)nc2Cl)CCN1C1CCN([C@@H](C(=O)OC)c2ccc(Cl)cc2)CC1 [compound 56],> 100
14,CC[C@H]1CN(c2nc(N)c(C(N)=O)nc2Cl)CCN1C1CCN([C@@H](C(N)=O)c2ccc(Cl)cc2)CC1 [compound 57],> 100
15,CC[C@H]1CN(c2nc(N)c(C(N)=O)nc2Cl)CCN1C1CCN(C(CNS(C)(=O)=O)c2ccc(Cl)cc2)CC1 (stereo partly shown) [compound 58],> 100
16,CC[C@H]1CN(c2nc(N)c(C(N)=O)nc2Cl)CCN1C1CCN(Cc2ccc(C(=O)NC)cc2)CC1 [compound 59],> 100
17,CC[C@H]1CN(c2nc(N)c(C(N)=O)nc2Cl)CCN1C1CCN(Cc2ccc(F)c(F)c2N2CCC[C@H]2C(C)(C)O)CC1 [compound 60],> 100
18,CC[C@H]1CN(c2nc(N)c(C(=O)NC)nc2Cl)CCN1C1CCN(Cc2ccc(-n3cncn3)cc2)CC1 [compound 75],25 to 100
19,CC[C@H]1CN(c2nc(N)c(C(=O)NC)nc2Cl)CCN1C1CCN([C@@H](C(N)=O)c2ccc(Cl)cc2)CC1 [compound 76],> 100
20,CC[C@H]1CN(c2nc(N)c(C(=O)NC)nc2Cl)CCN1C1CCN([C@H](C(=O)OC)c2ccc(Cl)cc2)CC1 [compound 77],> 100
21,CC[C@H]1CN(c2nc(N)c(C(=O)NC)nc2Cl)CCN1C1CCN(CCCOc2ccc(F)cc2)CC1 [compound 78],> 100
22,CC[C@H]1CN(c2nc(N)c(C(=O)NC)nc2Cl)CCN1C1CCN(CCCNC(=O)c2ccc(Cl)cc2)CC1 [compound 79],> 100
23,CC[C@H]1CN(c2nc(N)c(C(=O)NC)nc2Cl)CCN1C1(C)CCN(Cc2ccc(Cl)cc2)CC1 [compound 80],> 100
24,CC[C@H]1CN(c2nc(N)c(C(=O)NC)nc2Cl)CCN1C1(C)CCN(Cc2ccc(Cl)cc2C(=O)NC)CC1 [compound 81],> 100

# Next, values leading:
row,IC50 [nM],Compound
1,< 25,CC[C@H]1CN(c2nc(N)c(C(=O)NC)nc2Cl)CCN1C1CCN(Cc2ccc(Cl)cc2)CC1 [compound 61]
2,< 25,CC[C@H]1CN(c2nc(N)c(C(=O)NC)nc2Cl)CCN1C1CCN([C@@H](CO)c2ccc(Cl)cc2)CC1 [compound 62]
3,< 25,CC[C@H]1CN(c2nc(N)c(C(=O)NC)nc2Cl)CCN1C1CCN(C(CO)c2ccc(Cl)cc2)CC1 (stereo partly shown) [compound 63]
4,< 25,CC[C@H]1CN(c2nc(N)c(C(=O)NC)nc2Cl)CCN1C1CCN(Cc2ccc(C#N)cc2)CC1 [compound 64]
5,< 25,CNC(=O)c1nc(Cl)c(N2CCN(C3CCN(Cc4ccc(Cl)cc4)CC3)[C@@H](C)C2)nc1N [compound 65]
6,< 25,CC[C@H]1CN(c2nc(N)c(C(=O)NC)nc2Cl)CCN1C1CCN(Cc2ccc(-n3cccn3)cc2)CC1 [compound 66]
7,< 25,CC[C@H]1CN(c2nc(N)c(C(=O)OC)nc2Cl)CCN1C1CCN(Cc2ccc(Cl)cc2)CC1 [compound 67]
8,< 25,CNC(=O)c1nc(Cl)c(N2C[C@H](C)N(C3CCN(Cc4ccc(Cl)cc4F)CC3)C[C@H]2C)nc1N [compound 68]
9,< 25,CC[C@H]1CN(c2nc(N)c(C(=O)NC)nc2Cl)CCN1C1CCN([C@@H](C(=O)OC)c2ccc(Cl)cc2)CC1 [compound 69]
10,< 25,CC[C@H]1CN(c2nc(N)c(C(=O)NC)nc2Cl)CCN1C1CCN([C@@H](C(=O)O)c2ccc(Cl)cc2)CC1 [compound 70]
11,25 to 100,CC[C@H]1CN(c2nc(N)c(C(=O)NC)nc2Cl)CCN1C1CCN([C@@H](C(=O)NC)c2ccc(Cl)cc2)CC1 [compound 71]
12,25 to 100,CC[C@H]1CN(c2nc(N)c(C(=O)NC)nc2Cl)CCN1C1CCN(CCCCc2ccc(Cl)cc2)CC1 [compound 72]
13,25 to 100,CC[C@H]1CN(c2nc(N)c(C(=O)NC)nc2Cl)CCN1C1CCN(CCCC(=O)c2ccc(Cl)cc2)CC1 [compound 73]
14,25 to 100,CC[C@H]1CN(c2nc(N)c(C(=O)NC)nc2Cl)CCN1C1CCN([C@H](CO)c2ccc(Cl)cc2)CC1 [compound 74]
15,< 25,CC[C@H]1CN(c2nc(N)c(C(=O)NC3CC3)nc2Cl)CCN1C1CCN(Cc2ccc(Cl)cc2C(N)=O)CC1 [compound 82]
16,< 25,CC[C@H]1CN(c2nc(N)c(C(=O)NC3CC3)nc2Cl)CCN1C1CCN(Cc2ccc(Cl)cc2F)CC1 [compound 83]
17,< 25,CC[C@H]1CN(c2nc(N)c(C(=O)NC3CC3)nc2Cl)CCN1C1CCN(Cc2ccc(Cl)cc2O)CC1 [compound 84]
18,< 25,CC[C@H]1CN(c2nc(N)c(C(=O)NC3CC3)nc2Cl)CCN1C1CCN(Cc2ccc(Cl)cc2OCCO)CC1 [compound 85]
19,< 25,CC[C@H]1CN(c2nc(N)c(C(=O)NC3CC3)nc2Cl)CCN1C1CCN(Cc2ccc(C#N)cc2OCCO)CC1 [compound 86]
20,< 25,CC[C@H]1CN(c2nc(N)c(C(=O)NC3CC3)nc2Cl)CCN1C1CCN(Cc2ccc(Cl)cc2CN)CC1 [compound 87]
21,< 25,CC[C@H]1CN(c2nc(N)c(C(=O)NC3CC3)nc2Cl)CCN1C1CCN(Cc2ccc(Cl)cc2C#N)CC1 [compound 88]
22,< 25,CC[C@H]1CN(c2nc(N)c(C(=O)NC3CC3)nc2Cl)CCN1C1CCN(Cc2ccc(C#N)cc2OCCOC)CC1 [compound 89]
23,< 25,CC[C@H]1CN(c2nc(N)c(C(=O)NC3CC3)nc2Cl)CCN1C1CCN(Cc2ccc(Cl)cc2C(=O)OC)CC1 [compound 90]
24,< 25,CCC1CN(c2nc(N)c(C(=O)NC3CC3)nc2Cl)CCN1C1CCN(C(CCN)c2ccc(Cl)cc2)CC1 (stereo not shown) [compound 91]
25,< 25,CC[C@H]1CN(c2nc(N)c(C(=O)NC3CC3)nc2Cl)CCN1C1CCN(Cc2ccc(C#N)cc2OCC(=O)NC2CC2)CC1 [compound 92]
